From patent US20240360178A1, “MACROCYCLIC IMMUNOMODULATORS” (Bristol-Myers Squibb Company, priority 2021, published 2024) come the findings set out here.

Positions of bridges follow the written chain, without caps; N, C: chain ends. Non-standard residues stand in square brackets, D forms with d. Residues, ends and D or L forms follow the SMILES beside them. ξ: configuration not given here. Bip = N[C@@H](Cc1ccc(-c2ccccc2)cc1)C(=O)O; Orn = NCCC[C@H](N)C(=O)O; Dab = NCC[C@H](N)C(=O)O; Dap = NC[C@H](N)C(=O)O; ξS = NC(CO)C(=O)O

For one assay, the target named is T1, human PD-1 (Jurkat-PD-1 cells) / PE-labeled human PD-L1-Ig (Homo sapiens, UniProt Q15116).
T1 construct: expressed in transfected cells; host or cells: Jurkat cell line over-expressing human PD-1
T1 sequence (Q15116 25-288): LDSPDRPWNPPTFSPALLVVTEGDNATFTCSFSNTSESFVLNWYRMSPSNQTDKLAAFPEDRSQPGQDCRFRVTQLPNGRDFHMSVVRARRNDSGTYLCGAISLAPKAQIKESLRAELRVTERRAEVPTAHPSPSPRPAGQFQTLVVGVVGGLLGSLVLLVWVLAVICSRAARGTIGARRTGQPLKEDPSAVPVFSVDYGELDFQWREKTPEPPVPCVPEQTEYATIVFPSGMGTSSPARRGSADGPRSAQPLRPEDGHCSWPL
Put plainly: Jurkat-PD-1 Cell Binding High-Content Screening Assay (CBA); Jurkat hPD1-PDL1 assay. The conditions noted are these: Jurkat HPD1-PDL1 IC50, Jurkat cell line over-expressing human PD-1; PE-labeled PD-L1-Ig 20 nM final; compound incubated 2 hours at 37° C. An outline of the steps:
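Cell binding by imaging: Jurkat line stably over-expressing human PD-1, compound pre-exposure 2 h at 37° C, PE-conjugated PD-L1-Ig 20 nM final, medium DMEM containing 10% FCS.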
`CC(C)C[C@@H]1NC(=O)[C@H](Cc2c[nH]c3ccccc23)NC(=O)[C@H](CC(=O)O)NC(=O)[C@H](Cc2ccc(O)cc2)NC(=O)[C@H](Cc2ccccc2)NC(=O)CSC[C@@H](C(=O)NCC(N)=O)NC(=O)[C@H](CO)NC(=O)[C@H](C(C)C)NC(=O)[C@H](CC(C)C)NC(=O)[C@H](CC(N)=O)NC(=O)[C@H]2CCCN2C(=O)[C@H](CN)NC(=O)[C@H](C(C)C)NC(=O)[C@H](Cc2ccc(-c3ccccc3)cc2)NC1=O` [Example 1406] ({CH2CO}-FYDWL[Bip]V[Dap][dP]NLVSCG-NH2; thioether N-14) gave an IC50 of 350 nM.

The assay is the same for the next values; noted with them: Jurkat cell line over-expressing human PD-1; PE-labeled PD-L1-Ig 20 nM final; compound incubated 2 hours at 37° C.; read-out: Jurkat HPD1-PDL1 IC50.
`CC(C)C[C@@H]1NC(=O)[C@H](Cc2c[nH]c3ccccc23)NC(=O)[C@H](CC(=O)O)NC(=O)[C@H](Cc2ccc(O)cc2)NC(=O)[C@H](CC(N)=O)NC(=O)CSC[C@@H](C(=O)N[C@@H](C)C(N)=O)NC(=O)[C@H]([C@@H](C)O)NC(=O)[C@H](C(C)C)NC(=O)[C@H](CC(C)C)NC(=O)[C@H](CCN)NC(=O)[C@H]2CCCN2C(=O)[C@H](CCCN)NC(=O)[C@H](C(C)C)NC(=O)[C@H](Cc2ccc(-c3ccccc3)cc2)NC1=O` [Example 1402] ({CH2CO}-NYDWL[Bip]V[Orn][dP][Dab]LVTCA-NH2; thioether N-14): the half-inhibitory concentration (IC50) was determined as 260 nM.

Regarding `CC(C)C[C@@H]1NC(=O)[C@H](Cc2c[nH]c3ccccc23)NC(=O)[C@H](CC(=O)O)NC(=O)[C@H](Cc2ccc(O)cc2)NC(=O)[C@H](CC(N)=O)NC(=O)CSC[C@@H](C(=O)NCC(N)=O)NC(=O)[C@H](CO)NC(=O)[C@H](C(C)C)NC(=O)[C@H](CC(C)C)NC(=O)[C@H](CCN)NC(=O)[C@H]2CCCN2C(=O)[C@H](CCCN)NC(=O)[C@H](C(C)C)NC(=O)[C@H](Cc2ccc(-c3ccccc3)cc2)NC1=O` [Example 1403] ({CH2CO}-NYDWL[Bip]V[Orn][dP][Dab]LVSCG-NH2; thioether N-14), the IC50 is 70 nM.

`CC(C)C[C@@H]1NC(=O)[C@H](Cc2c[nH]c3ccccc23)NC(=O)[C@H](CC(=O)O)NC(=O)[C@H](Cc2ccc(O)cc2)NC(=O)[C@H](Cc2ccccc2)NC(=O)CSC[C@@H](C(=O)NCC(N)=O)NC(=O)[C@H]([C@@H](C)O)NC(=O)[C@H](C(C)C)NC(=O)[C@H](CC(C)C)NC(=O)[C@H](CC(N)=O)NC(=O)[C@H]2CCCN2C(=O)[C@H](CN)NC(=O)[C@H](C(C)C)NC(=O)[C@H](Cc2ccc(-c3ccccc3)cc2)NC1=O` [Example 1404] ({CH2CO}-FYDWL[Bip]V[Dap][dP]NLVTCG-NH2; thioether N-14): the IC50 worked out at 390 nM.

In the case of `CC(C)C[C@@H]1NC(=O)[C@H](Cc2c[nH]c3ccccc23)NC(=O)[C@H](CC(=O)O)NC(=O)[C@H](Cc2ccc(O)cc2)NC(=O)[C@H](Cc2ccccc2)NC(=O)CSC[C@@H](C(=O)N[C@@H](C)C(N)=O)NC(=O)[C@H]([C@@H](C)O)NC(=O)[C@H](C(C)C)NC(=O)[C@H](CC(C)C)NC(=O)[C@H](CC(N)=O)NC(=O)[C@H]2CCCN2C(=O)[C@H](CN)NC(=O)[C@H](C(C)C)NC(=O)[C@H](Cc2ccc(-c3ccccc3)cc2)NC1=O` [Example 1405] ({CH2CO}-FYDWL[Bip]V[Dap][dP]NLVTCA-NH2; thioether N-14), the half-maximal inhibitory concentration (IC50) came out at 660 nM.

Take `CC(C)C[C@@H]1NC(=O)[C@H](Cc2c[nH]c3ccccc23)NC(=O)[C@H](CC(=O)O)NC(=O)[C@H](Cc2ccc(O)cc2)NC(=O)[C@H](Cc2ccccc2)NC(=O)CSC[C@@H](C(=O)NCC(N)=O)NC(=O)[C@H]([C@@H](C)O)NC(=O)[C@H](C(C)C)NC(=O)[C@H](CC(C)C)NC(=O)[C@H](CCN)NC(=O)[C@H]2CCCN2C(=O)[C@H](CN)NC(=O)[C@H](C(C)C)NC(=O)[C@H](Cc2ccc(-c3ccccc3)cc2)NC1=O` [Example 1407] ({CH2CO}-FYDWL[Bip]V[Dap][dP][Dab]LVTCG-NH2; thioether N-14): the IC50 stood at 280 nM.

`CC(C)C[C@@H]1NC(=O)[C@H](Cc2c[nH]c3ccccc23)NC(=O)[C@H](CC(=O)O)NC(=O)[C@H](Cc2ccc(O)cc2)NC(=O)[C@H](Cc2ccccc2)NC(=O)CSC[C@@H](C(=O)N[C@@H](C)C(N)=O)NC(=O)[C@H](CO)NC(=O)[C@H](C(C)C)NC(=O)[C@H](CC(C)C)NC(=O)[C@H](CCN)NC(=O)[C@H]2CCCN2C(=O)[C@H](CN)NC(=O)[C@H](C(C)C)NC(=O)[C@H](Cc2ccc(-c3ccccc3)cc2)NC1=O` [Example 1408] ({CH2CO}-FYDWL[Bip]V[Dap][dP][Dab]LVSCA-NH2; thioether N-14): the IC50 stood at 90 nM.

Consider `CC(C)C[C@@H]1NC(=O)[C@H](Cc2c[nH]c3ccccc23)NC(=O)[C@H](CC(=O)O)NC(=O)[C@H](Cc2ccc(O)cc2)NC(=O)[C@H](Cc2ccccc2)NC(=O)CSC[C@@H](C(=O)N[C@@H](C)C(N)=O)NC(=O)[C@H]([C@@H](C)O)NC(=O)[C@H](C(C)C)NC(=O)[C@H](CC(C)C)NC(=O)[C@H](CCN)NC(=O)[C@H]2CCCN2C(=O)[C@H](CN)NC(=O)[C@H](C(C)C)NC(=O)[C@H](Cc2ccc(-c3ccccc3)cc2)NC1=O` [Example 1409] ({CH2CO}-FYDWL[Bip]V[Dap][dP][Dab]LVTCA-NH2; thioether N-14), for which the IC50 is 280 nM.

As to `CC(C)C[C@@H]1NC(=O)[C@H](Cc2c[nH]c3ccccc23)NC(=O)[C@H](CC(=O)O)NC(=O)[C@H](Cc2ccc(O)cc2)NC(=O)[C@H](Cc2ccccc2)NC(=O)CSC[C@@H](C(=O)NCC(N)=O)NC(=O)[C@H](CO)NC(=O)[C@H](C(C)C)NC(=O)[C@H](CC(C)C)NC(=O)[C@H](CCN)NC(=O)[C@H]2CCCN2C(=O)[C@H](CN)NC(=O)[C@H](C(C)C)NC(=O)[C@H](Cc2ccc(-c3ccccc3)cc2)NC1=O` [Example 1410] ({CH2CO}-FYDWL[Bip]V[Dap][dP][Dab]LVSCG-NH2; thioether N-14), the IC50 was found to be 140 nM.

As for `CC(C)C[C@@H]1NC(=O)[C@H](Cc2c[nH]c3ccccc23)NC(=O)[C@H](CC(=O)O)NC(=O)[C@H](Cc2ccc(O)cc2)NC(=O)[C@H](Cc2ccccc2)NC(=O)CSC[C@@H](C(=O)NCC(N)=O)NC(=O)[C@H]([C@@H](C)O)NC(=O)[C@H](C(C)C)NC(=O)[C@H](CC(C)C)NC(=O)[C@H](CC(N)=O)NC(=O)[C@H]2CCCN2C(=O)[C@H](CCN)NC(=O)[C@H](C(C)C)NC(=O)[C@H](Cc2ccc(-c3ccccc3)cc2)NC1=O` [Example 1411] ({CH2CO}-FYDWL[Bip]V[Dab][dP]NLVTCG-NH2; thioether N-14), the half-inhibitory concentration (IC50) came to 440 nM.

Consider `CC(C)C[C@@H]1NC(=O)[C@H](Cc2c[nH]c3ccccc23)NC(=O)[C@H](CC(=O)O)NC(=O)[C@H](Cc2ccc(O)cc2)NC(=O)[C@H](Cc2ccccc2)NC(=O)CSC[C@@H](C(=O)N[C@@H](C)C(N)=O)NC(=O)[C@H]([C@@H](C)O)NC(=O)[C@H](C(C)C)NC(=O)[C@H](CC(C)C)NC(=O)[C@H](CC(N)=O)NC(=O)[C@H]2CCCN2C(=O)[C@H](CCN)NC(=O)[C@H](C(C)C)NC(=O)[C@H](Cc2ccc(-c3ccccc3)cc2)NC1=O` [Example 1412] ({CH2CO}-FYDWL[Bip]V[Dab][dP]NLVTCA-NH2; thioether N-14), for which the IC50 was 480 nM.

As for `CC(C)C[C@@H]1NC(=O)[C@H](Cc2c[nH]c3ccccc23)NC(=O)[C@H](CC(=O)O)NC(=O)[C@H](Cc2ccc(O)cc2)NC(=O)[C@H](Cc2ccccc2)NC(=O)CSC[C@@H](C(=O)NCC(N)=O)NC(=O)[C@H](CO)NC(=O)[C@H](C(C)C)NC(=O)[C@H](CC(C)C)NC(=O)[C@H](CC(N)=O)NC(=O)[C@H]2CCCN2C(=O)[C@H](CCN)NC(=O)[C@H](C(C)C)NC(=O)[C@H](Cc2ccc(-c3ccccc3)cc2)NC1=O` [Example 1413] ({CH2CO}-FYDWL[Bip]V[Dab][dP]NLVSCG-NH2; thioether N-14), the half-maximal inhibitory concentration (IC50) was 90 nM.

As to `CC(C)C[C@@H]1NC(=O)[C@H](Cc2c[nH]c3ccccc23)NC(=O)[C@H](CC(=O)O)NC(=O)[C@H](Cc2ccc(O)cc2)NC(=O)[C@H](Cc2ccccc2)NC(=O)CSC[C@@H](C(=O)NCC(N)=O)NC(=O)[C@H]([C@@H](C)O)NC(=O)[C@H](C(C)C)NC(=O)[C@H](CC(C)C)NC(=O)[C@H](CCN)NC(=O)[C@H]2CCCN2C(=O)[C@H](CCN)NC(=O)[C@H](C(C)C)NC(=O)[C@H](Cc2ccc(-c3ccccc3)cc2)NC1=O` [Example 1414] ({CH2CO}-FYDWL[Bip]V[Dab][dP][Dab]LVTCG-NH2; thioether N-14), the IC50 is 320 nM.

Take `CC(C)C[C@@H]1NC(=O)[C@H](Cc2c[nH]c3ccccc23)NC(=O)[C@H](CC(=O)O)NC(=O)[C@H](Cc2ccc(O)cc2)NC(=O)[C@H](Cc2ccccc2)NC(=O)CSC[C@@H](C(=O)N[C@@H](C)C(N)=O)NC(=O)C(CO)NC(=O)[C@H](C(C)C)NC(=O)[C@H](CC(C)C)NC(=O)[C@H](CCN)NC(=O)[C@H]2CCCN2C(=O)[C@H](CCN)NC(=O)[C@H](C(C)C)NC(=O)[C@H](Cc2ccc(-c3ccccc3)cc2)NC1=O` (stereo partly shown) [Example 1415] ({CH2CO}-FYDWL[Bip]V[Dab][dP][Dab]LV[ξS]CA-NH2; thioether N-14): the IC50 was determined as 80 nM.

With `CC(C)C[C@@H]1NC(=O)[C@H](Cc2c[nH]c3ccccc23)NC(=O)[C@H](CC(=O)O)NC(=O)[C@H](Cc2ccc(O)cc2)NC(=O)[C@H](Cc2ccccc2)NC(=O)CSC[C@@H](C(=O)N[C@@H](C)C(N)=O)NC(=O)[C@H]([C@@H](C)O)NC(=O)[C@H](C(C)C)NC(=O)[C@H](CC(C)C)NC(=O)[C@H](CCN)NC(=O)[C@H]2CCCN2C(=O)[C@H](CCN)NC(=O)[C@H](C(C)C)NC(=O)[C@H](Cc2ccc(-c3ccccc3)cc2)NC1=O` [Example 1416] ({CH2CO}-FYDWL[Bip]V[Dab][dP][Dab]LVTCA-NH2; thioether N-14), the concentration for half-maximal inhibition (IC50) came out at 240 nM.

As to `CC(C)C[C@@H]1NC(=O)[C@H](Cc2c[nH]c3ccccc23)NC(=O)[C@H](CC(=O)O)NC(=O)[C@H](Cc2ccc(O)cc2)NC(=O)[C@H](Cc2ccccc2)NC(=O)CSC[C@@H](C(=O)NCC(N)=O)NC(=O)[C@H](CO)NC(=O)[C@H](C(C)C)NC(=O)[C@H](CC(C)C)NC(=O)[C@H](CCN)NC(=O)[C@H]2CCCN2C(=O)[C@H](CCN)NC(=O)[C@H](C(C)C)NC(=O)[C@H](Cc2ccc(-c3ccccc3)cc2)NC1=O` [Example 1417] ({CH2CO}-FYDWL[Bip]V[Dab][dP][Dab]LVSCG-NH2; thioether N-14), the IC50 was 70 nM.
